Experimental data from patent US20230212519A1, “METHOD FOR PURIFYING CARDIOMYOCYTES” (ORIZURU THERAPEUTICS, INC., priority 2020, published 2023).

System: embryoid body containing mixture of cardiomyocytes and non-cardiomyocytes
Test: Sarcomeric α-actinin-positive cell rate by flow cytometer after treatment of embryoid body with compound
Assay type: cell-based, human
Conditions: Experimental Example 4; clinical iPS cell line; embryoid body treated from day 20 for 4 days; FK-228 1-30 nM, Entinostat 0.1-10 μM
Protocol: On day 20, the embryoid body was recovered in a centrifugal tube, stood until a sediment of the embryoid body was formed, and the supernatant was aspirated while avoiding sucking the embryoid body. The medium was changed with a fresh 13 medium (same medium for myocardial differentiation as in Experimental Example 1), and divided into a 6-well plate with a medium amount of 3 mL/well so that an equal amount of the embryoid body would be placed in each well. Thereafter, an evaluation compound (1 nM to 10 μM) described in Table 1 or DMSO (0.1%) was added. […] It was centrifuged at 500 g for 1 min. The supernatant was removed, a solution of 500 μL of IMDM added with DNase 10 μg/mL and Liberase 100 μg/mL was added per one tube, and the mixture was stood at 37° C. under general oxygen conditions for 1 hr. […] The fixed cells were stained with an anti-sarcomeric α-actinin antibody, and the expression of sarcomeric α-actinin was analyzed with a flow cytometer. […]
On day 20, the embryoid body was recovered in a centrifugal tube, stood until a sediment of the embryoid body was formed, and the supernatant was aspirated while avoiding sucking the embryoid body. […] The fixed cells were stained with an anti-sarcomeric α-actinin antibody, and the sarcomeric α-actinin-positive cell rate was measured by analyzing the expression of sarcomeric α-actinin with a flow cytometer. […]

## Nc1ccccc1NC(=O)c1ccc(CNC(=O)OCc2cccnc2)cc1 [Entinostat]
  cardiomyocyte rate (sarcomeric α-actinin-positive cell rate): improved
